Experimental findings from US10828301B2, “2,4-pyrimidinediamine compounds and their uses” (Rigel Pharmaceuticals, Inc, priority 2002, dated 2020) are described below.

Where only a bound is given, the exact number is not on record here.

Assay [1] has as its system cultured human mast cells (CHMC). Put plainly: CHMC low cell density IgE activation: tryptase and LTC4 assays. The assay is classed as cell-based. Conditions: read-out: CHMC anti-IgE Tryptase. The method in brief:
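Cultured human mast cells at low density (1000-1500 per well) rested 1 h at 37° C, then stimulated with anti-IgE for 30 min at 37° C. Supernatant tryptase measured with fluorogenic substrate (30 min, room temperature); LTC4 quantified by ELISA on diluted supernatant.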

The test system is the same in assay [2]. Put plainly: CHMC low cell density ionomycin activation: tryptase assay. Type of assay: cell-based. Conditions: read-out: CHMC Ionomycin Tryptase.
[3] abbreviates: Homo sapiens, Mast cell, Low Density CHMC, anti-IgE activation, tryptase readout.
Where [4] appears, read: Homo sapiens, Mast cell, Low Density CHMC, ionomycin activation, tryptase readout.
Setting [5] is: Low Density CHMC, anti-IgE activation, tryptase readout.
Setting [6] is: Low Density CHMC, ionomycin activation, tryptase readout.

`Cc1ccc(F)c(Nc2ncc(F)c(Nc3ccc4c(c3)OCCO4)n2)c1` [Compound R926897, N4-(3,4-Ethylenedioxyphenyl)-5-fluoro-N2-(2-fluoro-5-methylphenyl)-2,4-pyrimidinediamine]: the IC50 in assay [1] (setting [3]) was 1.73 µM; in assay [2] (setting [4]) it was greater than 10 µM.

On to `Fc1cc(F)cc(Nc2ncc(F)c(Nc3ccc4c(c3)OCCO4)n2)c1` [Compound R926898, N4-(3,4-Ethylenedioxyphenyl)-5-fluoro-N2-(3,5-difluorophenyl)-2,4-pyrimidinediamine], for which the values for the IC50 in assay [1] (setting [3]) and in assay [2] (setting [4]) were 1.1 µM and greater than 10 µM, respectively.

As for `Fc1cnc(Nc2ccc(SC(F)(F)F)cc2)nc1Nc1ccc2c(c1)OCCO2` [Compound R926899, N4-(3,4-Ethylenedioxyphenyl)-5-fluoro-N2-(4-trifluoromethylthiophenyl)-2,4-pyrimidinediamine], the IC50 was 1.1 µM in assay [1] (setting [3]) and greater than 10 µM in assay [2] (setting [4]).

For `CCNC(=O)Oc1cccc(Nc2ncc(F)c(Nc3cccc(O)c3)n2)c1` [Compound R926928, N2-[3-[(N-Ethylamino)carbonyloxy]phenyl]-5-fluoro-N4-(3-hydroxyphenyl)-2,4-pyrimidinediamine], the IC50 in assay [1] (Homo sapiens, Mast cell) was 0.575 µM; in assay [2] (Homo sapiens, Mast cell), greater than 10 µM.

In the case of `Oc1cccc(Nc2ncc(F)c(Nc3ccc4[nH]ccc4c3)n2)c1` [Compound R926932, 5-Fluoro-N2-(3-hydroxyphenyl)-N4-[(1H)-indol-5-yl]-2,4-pyrimidinediamine], the results for the IC50 in assay [1] (setting [3]) and in assay [2] (setting [4]) were 0.31 µM and greater than 10 µM, respectively.

Turning to `CNC(=O)COc1cccc(Nc2ncc(F)c(Nc3ccc4c(c3)C=CCC4)n2)c1` [Compound R926944, 5-Fluoro-N4-(3,4-dihydronaphthalen-7-yl)-N2-[3-[(N-methylamino)carbonylmethyleneoxy]phenyl]-2,4-pyrimidinediamine], the IC50 in assay [1] (setting [5]) amounted to 0.225 µM; in assay [2] (setting [6]), 99 µM.

Regarding `COc1ccc(Nc2nc(Nc3cccc(O)c3)ncc2F)cc1Cl` [Compound R926945, N4-(3-Chloro-4-methoxyphenyl)-5-fluoro-N2-(3-hydroxyphenyl)-2,4-pyrimidinediamine], the IC50 is 0.457 µM in assay [1] (setting [3]) and greater than 10 µM in assay [2] (setting [4]).

In the case of `CNC(=O)COc1cccc(Nc2ncc(F)c(Nc3ccc4c(c3)C(=NO)CCC4)n2)c1` [Compound R926948, 5-Fluoro-N4-(1,2,3,4-tetrahydro-1-hydroxyiminonaphthalen-7-yl)-N2-[3-[(N-methylamino)carbonylmethyleneoxy]phenyl]-2,4-pyrimidinediamine], the IC50 in assay [1] (setting [5]) is 0.246 µM; in assay [2] (setting [6]), greater than 10 µM.

For `COC(=O)C1Cc2cc(Nc3ncc(F)c(Nc4ccc(OC)c(Cl)c4)n3)ccc2O1` (stereo not drawn) [Compound R926951, N4-(3-Chloro-4-methoxyphenyl)-5-fluoro-N2-[2,3-dihydro-2-(methoxycarbonyl)benzofuran-5-yl]-2,4-pyrimidinediamine], the IC50 is 0.183 µM in assay [1] (setting [3]) and greater than 10 µM in assay [2] (setting [4]).

Take `COC(=O)C1Cc2cc(Nc3ncc(F)c(Nc4ccc(OC(F)(F)F)c(Cl)c4)n3)ccc2O1` (stereo not drawn) [Compound R926953, N4-(3-Chloro-4-trifluoromethoxyphenyl)-5-fluoro-N2-[2,3-dihydro-2-(methoxycarbonyl)benzofuran-5-yl]-2,4-pyrimidinediamine]: the IC50 in assay [1] (setting [3]) was 0.049 µM; in assay [2] (setting [4]), greater than 10 µM.

For `CNC(=O)C1Cc2cc(Nc3ncc(F)c(Nc4ccc(OC(F)(F)F)c(Cl)c4)n3)ccc2O1` (stereo not drawn) [Compound R926954, N4-(3-Chloro-4-trifluoromethoxyphenyl)-5-fluoro-N2-[2,3-dihydro-2-[(N-methylamino)carbonyl]benzofuran-5-yl]-2,4-pyrimidinediamine], the IC50 in assay [1] (setting [3]) was 0.284 µM; in assay [2] (setting [4]), greater than 10 µM.

For the compound `CNC(=O)C1Cc2cc(Nc3ncc(F)c(Nc4ccc(OC)c(Cl)c4)n3)ccc2O1` (stereo not drawn) [Compound R926955, N4-(3-Chloro-4-methoxyphenyl)-5-fluoro-N2-[2,3-dihydro-2-[(N-methylamino)carbonyl]benzofuran-5-yl]-2,4-pyrimidinediamine], the IC50 was 0.36 µM in assay [1] (setting [3]) and greater than 10 µM in assay [2] (setting [4]).

Take `Oc1cccc(Nc2ncc(F)c(Nc3ccc(Cl)cn3)n2)c1` [Compound R927020, N4-(5-Chloropyridin-2-yl)-5-fluoro-N2-(3-hydroxyphenyl)-2,4-pyrimidinediamine]: the IC50 in assay [1] (setting [3]) is 1.32 µM; in assay [2] (setting [4]), greater than 10 µM.

As for `CNC(=O)COc1cccc(Nc2ncc(F)c(Nc3ccc(OCCO)nc3)n2)c1` [Compound R927023, 5-Fluoro-N4-[2-(2-hydroxyethyleneoxy)pyridin-5-yl]-N2-[3-(N-methylamino)carbonylmethyleneoxyphenyl]-2,4-pyrimidinediamine], the IC50 in assay [1] (setting [5]) was 0.918 µM; in assay [2] (setting [6]), greater than 10 µM.

For the compound `COC(=O)c1cc2cc(Nc3ncc(F)c(Nc4ccc(Cl)cc4)n3)ccc2o1` [Compound R927026, N4-(4-Chlorophenyl)-5-fluoro-N2-(2-methoxycarbonylbenzofuran-5-yl)-2,4-pyrimidinediamine], the IC50 in assay [1] (setting [3]) and in assay [2] (setting [4]) was greater than 10 µM throughout.

As to `COC(=O)c1cc2cc(Nc3ncc(F)c(Nc4ccc(Cl)c(Cl)c4)n3)ccc2o1` [Compound R927027, N4-(3,4-Dichlorophenyl)-5-fluoro-N2-(2-methoxycarbonylbenzofuran-5-yl)-2,4-pyrimidinediamine], the IC50 in assay [1] (setting [3]) and in assay [2] (setting [4]) was greater than 10 µM each time.

On to `COc1ccc(-c2ccccc2)cc1Nc1ncc(C)c(Nc2cc(-c3ccccc3)ccc2OC)n1` [Compound R935000, N2,N4-Bis(2-methoxy-5-phenylphenyl)-5-methyl-2,4-pyrimidinediamine], for which the IC50 in assay [1] (setting [3]) and in assay [2] (setting [4]) was greater than 10 µM each time.

As for `COc1ccc(C(Nc2ncc(F)c(NC(c3ccc(OC)cc3)c3ccc(OC)cc3)n2)c2ccc(OC)cc2)cc1` [Compound R935004, N2,N4-Bis[[di-(4-methoxyphenyl)]methyl]-5-fluoro-2,4-pyrimidinediamine], the IC50 in assay [1] (setting [3]) and in assay [2] (setting [4]) was greater than 10 µM each time.

For `Fc1cnc(NC(c2ccccc2)c2ccccc2)nc1NC(c1ccccc1)c1ccccc1` [Compound R935005, N2,N4-Bis(diphenylmethyl)-5-fluoro-2,4-pyrimidinediamine], the IC50 in assay [1] (setting [3]) and in assay [2] (setting [4]) was greater than 10 µM throughout.

Take `Fc1cnc(NC(c2ccc(Cl)cc2)c2ccc(Cl)cc2)nc1NC(c1ccc(Cl)cc1)c1ccc(Cl)cc1` [Compound R935006, N2,N4-Bis[di-(4-chlorophenyl)methyl]-5-fluoro-2,4-pyrimidinediamine]: the IC50 stood at 10 µM in assay [1] (setting [3]) and 9.8 µM in assay [2] (setting [4]).

On to `Oc1cccc(Nc2ncc(F)c(NC(c3ccc(Cl)cc3)c3ccc(Cl)cc3)n2)c1` [Compound R935019, 5-Fluoro-N2-(3-hydroxyphenyl)-N4-[di-(4-chlorophenyl)methyl]-2,4-pyrimidinediamine], for which the IC50 in assay [1] (setting [3]) was 8.8 µM; in assay [2] (setting [4]), greater than 10 µM.

`Oc1cccc(Nc2ncc(F)c(NC3c4ccccc4-c4ccccc43)n2)c1` [Compound R935020, N4-(Fluoren-9-yl)-5-fluoro-N2-(3-hydroxyphenyl)-2,4-pyrimidinediamine]: the IC50 in assay [1] (setting [3]) and in assay [2] (setting [4]) was greater than 10 µM in each case.

Consider `COC(=O)c1cc(Nc2nc(Nc3cccc(O)c3)ncc2Br)cn1C` [Compound R935025, 5-Bromo-N2-(3-hydroxyphenyl)-N4-(N-methyl-2-carbomethoxypyrrol-4-yl)-2,4-pyrimidinediamine], for which the figures for the IC50 in assay [1] (setting [3]) and in assay [2] (setting [4]) were 1.04 µM and greater than 10 µM, respectively.

In the case of `Nc1nc(Nc2cccc(O)c2)ncc1Br` [Compound R935029, 4-Amino-5-bromo-N2-(3-hydroxyphenyl)-2-pyrimidineamine], the IC50 in assay [1] (setting [3]) was 2.83 µM; in assay [2] (setting [4]), greater than 10 µM.

In the case of `COCCOc1cccc(Nc2ncc(F)c(Nc3cccc(OCCOC)c3)n2)c1` [Compound R935076, N2,N4-Bis[3-(2-methoxyethyl)oxyphenyl]-5-fluoro-2,4-pyrimidinediamine], the IC50 in assay [1] (setting [3]) is 4.15 µM; in assay [2] (setting [4]), greater than 10 µM.

For the compound `CC(C)c1ccc(O)cc1Nc1ncc(F)c(Nc2cc(O)ccc2C(C)C)n1` [Compound R935077, N2,N4-Bis(5-hydroxy-2-isopropylphenyl)-5-fluoro-2,4-pyrimidinediamine], the IC50 in assay [1] (setting [3]) and in assay [2] (setting [4]) was greater than 10 µM throughout.

Consider `CC(C)Oc1ccc(Nc2nc(Nc3ccc(C(C)(C)CO)cc3)ncc2F)cc1` [Compound R935151, 5-Fluoro-N2-[4-(2-hydroxy-1,1-dimethylethyl)phenyl]-N4-(4-isopropoxyphenyl)-2,4-pyrimidinediamine], for which the IC50 was 0.479 µM in assay [1] (setting [3]) and greater than 10 µM in assay [2] (setting [4]).

In the case of `CC(C)(CO)c1ccc(Nc2nc(Nc3ccc(OCCO)cc3)ncc2F)cc1` [Compound R935158, 5-Fluoro-N4-[4-(2-hydroxy-1,1-dimethylethyl)phenyl]-N2-[4-(2-hydroxyethoxy)phenyl]-2,4-pyrimidinediamine], the IC50 in assay [1] (setting [3]) was 0.551 µM; in assay [2] (setting [4]), greater than 10 µM.

In the case of `CC(C)(CO)c1ccc(Nc2nc(Nc3cccc(OCCO)c3)ncc2F)cc1` [Compound R935161, 5-Fluoro-N4-[4-(2-hydroxy-1,1-dimethylethyl)phenyl]-N2-[3-(2-hydroxyethoxy)phenyl]-2,4-pyrimidinediamine], the IC50 in assay [1] (setting [3]) is 0.277 µM; in assay [2] (setting [4]), greater than 10 µM.

Turning to `CC(C)Oc1ccc(Nc2ncc(F)c(Nc3ccc(C(C)(C)CO)cc3)n2)cc1` [Compound R935168, 5-Fluoro-N4-[4-(2-hydroxy-1,1-dimethylethyl)phenyl]-N2-(4-isopropoxyphenyl)-2,4-pyrimidinediamine], the IC50 came out at 0.488 µM in assay [1] (setting [3]) and 9.48 µM in assay [2] (setting [4]).
